Results: the supplement of paper PMC4862054

Assays:
Conditions in all cases: incubation time: 72 h
MDA-MB-436 [1] = experiment: normalised response (% of control), CellTox Green; higher = less cell death (100 = DMSO, 0 = benzethonium chloride kill control)
Summary of the method: (§1)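 Breast cancer cell lines (20 µl suspension) were seeded into 384-well plates holding compound at 5 concentrations in 10-fold steps over a compound-specific 10,000-fold range, then incubated 72 h. CellTox Green fluorescence (485/520 nm) was read first, then CellTiter-Glo luminescence after 10 min at room temperature. Each plate was normalised to 0.1 % DMSO (100) and a positive kill control (0). Each value is the normalised signal at a single concentration of the series.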

CAL-85-1 [2] = experiment: as above
Summary of the method: as §1

Hs578T [3] = experiment: as above
Summary of the method: as §1

CAL-148 [4] = experiment: as above
Summary of the method: as §1

HCC1599 [5] = experiment: as above
Summary of the method: as §1

MDA-MB-468 [6] = experiment: as above
Summary of the method: as §1

BT-549 [7] = experiment: as above
Summary of the method: as §1

MFM-223 [8] = experiment: as above
Summary of the method: as §1

HCC1937 [9] = experiment: as above
Summary of the method: as §1

MCF-10A [10] = experiment: as above
Summary of the method: as §1

HDQ-P1 [11] = experiment: as above
Summary of the method: as §1

MDA-MB-453 [12] = experiment: as above
Summary of the method: as §1

CAL-120 [13] = experiment: as above
Summary of the method: as §1

CAL-51 [14] = experiment: as above
Summary of the method: as §1

DU-4475 [15] = experiment: as above
Summary of the method: as §1

MDA-MB-231 [16] = experiment: as above
Summary of the method: as §1

HCC1143 [17] = experiment: as above
Summary of the method: as §1

BT-474 [18] = experiment: as above
Summary of the method: as §1

MDA-MB-436 [19] = experiment: normalised response (% of control), CellTiter-Glo; higher = more viable cells (100 = DMSO, 0 = benzethonium chloride kill control)
Summary of the method: as §1

CAL-85-1 [20] = experiment: as above
Summary of the method: as §1

Hs578T [21] = experiment: as above
Summary of the method: as §1

CAL-148 [22] = experiment: as above
Summary of the method: as §1

HCC1599 [23] = experiment: as above
Summary of the method: as §1

MDA-MB-468 [24] = experiment: as above
Summary of the method: as §1

BT-549 [25] = experiment: as above
Summary of the method: as §1

MFM-223 [26] = experiment: as above
Summary of the method: as §1

SK-BR-3 = experiment: as above
Summary of the method: as §1

HCC1937 [27] = experiment: as above
Summary of the method: as §1

MCF-10A [28] = experiment: as above
Summary of the method: as §1

HDQ-P1 [29] = experiment: as above
Summary of the method: as §1

MDA-MB-453 [30] = experiment: as above
Summary of the method: as §1

CAL-120 [31] = experiment: as above
Summary of the method: as §1

CAL-51 [32] = experiment: as above
Summary of the method: as §1

DU-4475 [33] = experiment: as above
Summary of the method: as §1

MDA-MB-231 [34] = experiment: as above
Summary of the method: as §1

HCC1143 [35] = experiment: as above
Summary of the method: as §1

BT-474 [36] = experiment: as above
Summary of the method: as §1

Row | SMILES | normalised response (MDA-MB-436 [1]) | normalised response (CAL-85-1 [2]) | normalised response (Hs578T [3]) | normalised response (CAL-148 [4]) | normalised response (HCC1599 [5]) | normalised response (MDA-MB-468 [6]) | normalised response (BT-549 [7]) | normalised response (MFM-223 [8]) | normalised response (HCC1937 [9]) | normalised response (MCF-10A [10]) | normalised response (HDQ-P1 [11]) | normalised response (MDA-MB-453 [12]) | normalised response (CAL-120 [13]) | normalised response (CAL-51 [14]) | normalised response (DU-4475 [15]) | normalised response (MDA-MB-231 [16]) | normalised response (HCC1143 [17]) | normalised response (BT-474 [18]) | normalised response (MDA-MB-436 [19]) | normalised response (CAL-85-1 [20]) | normalised response (Hs578T [21]) | normalised response (CAL-148 [22]) | normalised response (HCC1599 [23]) | normalised response (MDA-MB-468 [24]) | normalised response (BT-549 [25]) | normalised response (MFM-223 [26]) | normalised response (SK-BR-3) | normalised response (HCC1937 [27]) | normalised response (MCF-10A [28]) | normalised response (HDQ-P1 [29]) | normalised response (MDA-MB-453 [30]) | normalised response (CAL-120 [31]) | normalised response (CAL-51 [32]) | normalised response (DU-4475 [33]) | normalised response (MDA-MB-231 [34]) | normalised response (HCC1143 [35]) | normalised response (BT-474 [36])
1 | N#Cc1ccc(C(c2ccc(C#N)cc2)n2cncn2)cc1 [Letrozole] (1000 nM) | 87.6% | 105% | 106% | 101% | 85.3% | 75.9% | 89.6% | 88.4% | 67.6% | 114% | 102% | 96.4% | 103% | 98.2% | 100% | 98.9% | 101% | 100% | 105% | 98.8% | 97.1% | 94.7% | 104% | 103% | 103% | 100% | 99.5% | 103% | 101% | 102% | 99.3% | 99% | 80.8% | 98.8% | 96.5% | 108% | 94.4%
2 | O=C(Cc1ccc(-c2ccc(OCCN3CCOCC3)cc2)cn1)NCc1ccccc1 [KX2-391] (1000 nM) | 83.1% | 68.1% | 38.4% | 74.2% | 71.9% | 23.4% | 76.7% | 44.2% | 115% | 38.9% | 99.8% | 49.9% | 90.4% | 30.9% | 101% | -59.4% | 113% | 80.8% | 25.2% | 45.3% | 19.7% | 41.4% | 14.8% | 33.4% | 43.6% | 44.9% | 14.9% | 72.8% | 75.2% | 70.8% | 72% | 59.4% | 19.3% | 45.6% | 46.6% | 61.5% | 52.5%
3 | COc1cc([C@@H]2c3cc4c(cc3[C@@H](O[C@@H]3O[C@@H]5CO[C@@H](c6cccs6)O[C@H]5[C@H](O)[C@H]3O)[C@H]3COC(=O)[C@H]23)OCO4)cc(OC)c1O [Teniposide] (1000 nM) | 90.5% | 91% | 98.2% | 21.2% | 75.5% | 94.5% | 78.4% | 69.6% | 92.2% | 75.1% | 102% | 111% | 88.1% | 51.4% | 75% | 61.2% | -28.9% | 99.1% | 36.6% | 55.3% | 76.3% | 33.3% | 19.6% | 41.9% | 36.5% | 82.4% | 19.1% | 72.4% | 82.8% | 84.1% | 160% | 72.4% | 47.8% | 17.3% | 66% | 47.8% | 47.6%
4 | O=C(/C=C/c1cccnc1)NCCCCC1CCN(C(=O)c2ccccc2)CC1 [Daporinad] (100 nM) | 103% | 101% | 20% | 95% | 78.1% | 125% | 105% | 70.9% | 27.6% | 98.1% | 103% | 104% | 91.2% | 105% | 98.8% | 112% | 104% | 98.6% | 54% | 16% | 8.08% | 69% | 0.54% | 0.85% | 100% | 4.38% | 107% | 21.3% | 11.1% | 19.1% | 14.3% | 17% | 102% | 4.65% | 25.8% | 14.3% | 28.7%
